Bridge positions count the residues as written; N and C are the ends. Square brackets hold non-standard residues; d marks the D form. Peptide text beside a SMILES is read from it. * marks the point of attachment. ξ: configuration not given here. Phe(3-COOH) = N[C@@H](Cc1cccc(C(=O)O)c1)C(=O)O; Phe(4-COOH) = N[C@@H](Cc1ccc(C(=O)O)cc1)C(=O)O; Trp(2-Me) = Cc1[nH]c2ccccc2c1C[C@H](N)C(=O)O; Bip = N[C@@H](Cc1ccc(-c2ccccc2)cc1)C(=O)O; Phe(3-CN) = N#Cc1cccc(C[C@H](N)C(=O)O)c1; Phe(3-OMe) = COc1cccc(C[C@H](N)C(=O)O)c1; Phe(3-Me) = Cc1cccc(C[C@H](N)C(=O)O)c1; Val(3-OH) = CC(C)(O)[C@H](N)C(=O)O; 4Pal = N[C@@H](Cc1ccncc1)C(=O)O; Cha = N[C@@H](CC1CCCCC1)C(=O)O; Thr(3ξ) = CC(O)[C@H](N)C(=O)O; Carboxymethyl = O=C(O)C*; NMeA = CN[C@@H](C)C(=O)O; Orn = NCCC[C@H](N)C(=O)O; Pra = C#CC[C@H](N)C(=O)O; Aze = O=C(O)[C@@H]1CCN1; Dab = NCC[C@H](N)C(=O)O; Nva = CCC[C@H](N)C(=O)O; Dap = NC[C@H](N)C(=O)O; Piv = CC(C)(C)C(=O)*
Target: T1, PE-labeled human PD-L1-Ig binding to Jurkat cell line over-expressing human PD-1 (Jurkat-PD-1) (Homo sapiens, UniProt Q15116)
T1 construct: expressed in transfected cells; host or cells: Jurkat
T1 sequence (Q15116 25-288): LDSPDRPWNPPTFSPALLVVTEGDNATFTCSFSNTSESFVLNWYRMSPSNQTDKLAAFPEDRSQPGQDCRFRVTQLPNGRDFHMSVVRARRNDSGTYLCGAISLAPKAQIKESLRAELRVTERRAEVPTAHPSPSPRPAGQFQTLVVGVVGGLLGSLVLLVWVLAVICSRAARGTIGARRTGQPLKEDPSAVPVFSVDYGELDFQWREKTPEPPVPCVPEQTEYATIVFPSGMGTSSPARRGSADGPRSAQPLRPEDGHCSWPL
Assay: Jurkat-PD-1 Cell Binding High-Content Screening Assay (CBA): Method 1
Settings: Jurkat-hPD-1 cells, PE-labeled PD-L1-Ig 20 nM final; read-out: Jurkat HPDL1 PD1 IC50 (uM) (Method 1)

Row | IC50 [µM] | Structure (SMILES)
1 | 0.02 | Cc1cccc(C[C@@H]2NC(=O)[C@H](CC(=O)O)NC(=O)[C@H](Cc3ccc(O)cc3)NC(=O)[C@H](CC(N)=O)NC(=O)CSC[C@@H](C(=O)N[C@@H](C)C(N)=O)NC(=O)[C@H]([C@@H](C)O)NC(=O)[C@H](C(C)C)NC(=O)[C@H](CC(C)C)NC(=O)[C@H](CCN)NC(=O)[C@@H](CC(C)C)NC(=O)[C@H](C)N(C)C(=O)[C@H](Cc3cnc[nH]3)NC(=O)[C@H](Cc3ccc(-c4ccccc4)cc3)NC(=O)[C@H](C(C)C)NC2=O)c1 [Compound 1376] ({CH2CO}-NYD[Phe(3-Me)]V[Bip]H[NMeA][dL][Dab]LVTCA-NH2; thioether N-14)
2 | 0.09 | COc1ccc(C[C@@H]2NC(=O)[C@H](Cc3ccccc3)NC(=O)CSC[C@@H](C(=O)N[C@@H](C)C(N)=O)NC(=O)[C@H]([C@@H](C)O)NC(=O)[C@H](C(C)C)NC(=O)[C@H](CC(C)C)NC(=O)[C@H](CCCNC(=N)N)NC(=O)[C@@H](CC(C)C)NC(=O)[C@H](C)N(C)C(=O)[C@H](CCCNC(=N)N)NC(=O)[C@H](Cc3ccc(-c4ccccc4)cc3)NC(=O)[C@H](C(C)C)NC(=O)[C@H](Cc3c[nH]c4ccccc34)NC(=O)[C@H](CC(=O)O)NC2=O)cc1 [Compound 1091] ({CH2CO}-FY(Me)DWV[Bip]R[NMeA][dL]RLVTCA-NH2; thioether N-14)
3 | 0.73 | Cc1[nH]c2ccccc2c1C[C@@H]1NC(=O)[C@H](CC(=O)O)NC(=O)[C@H](Cc2ccc(O)cc2)NC(=O)[C@H](Cc2ccccc2)NC(=O)CSC[C@@H](C(=O)N[C@@H](C)C(N)=O)NC(=O)[C@H]([C@@H](C)O)NC(=O)[C@H](C(C)C)NC(=O)[C@H](CC(C)C)NC(=O)[C@H](CCN)NC(=O)[C@@H](CC(C)C)NC(=O)[C@H](C)N(C)C(=O)[C@H](CCCNC(=N)N)NC(=O)[C@H](Cc2ccc(-c3ccccc3)cc2)NC(=O)[C@H](C(C)C)NC1=O [Compound 1202] ({CH2CO}-FYD[Trp(2-Me)]V[Bip]R[NMeA][dL][Dab]LVTCA-NH2; thioether N-14)
4 | 0.03 | CC(C)C[C@H]1NC(=O)[C@H](C)N(C)C(=O)[C@H](CCCNC(=N)N)NC(=O)[C@H](Cc2ccc(-c3ccccc3)cc2)NC(=O)[C@H](C(C)C)NC(=O)[C@H](Cc2c[nH]c3ccccc23)NC(=O)[C@H](CC(=O)O)NC(=O)[C@H](Cc2ccc(O)cc2)NC(=O)[C@H](CC(N)=O)NC(=O)CSC[C@@H](C(=O)N[C@@H](C)C(N)=O)NC(=O)[C@H]([C@@H](C)O)NC(=O)[C@H](C(C)C)NC(=O)[C@H](CC2CCCCC2)NC(=O)[C@H](CCCNC(=N)N)NC1=O [Compound 1275] ({CH2CO}-NYDWV[Bip]R[NMeA][dL]R[Cha]VTCA-NH2; thioether N-14)
5 | 0.09 | CC(C)C[C@@H]1NC(=O)[C@H](C)NC(=O)[C@@H](C)NC(=O)[C@H](C)N(C)C(=O)[C@H](CCC(=O)O)NC(=O)[C@H](Cc2ccc(-c3ccccc3)cc2)NC(=O)[C@H](CC(C)C)NC(=O)[C@H](Cc2c[nH]c3ccccc23)NC(=O)[C@H](CC(=O)O)NC(=O)[C@H](Cc2ccc(O)cc2)NC(=O)[C@H](Cc2ccccc2)NC(=O)CSC[C@@H](C(=O)N[C@@H](C)C(N)=O)NC(=O)[C@H](CO)NC(=O)[C@H](C(C)C)NC1=O [Compound 1785] ({CH2CO}-FYDWL[Bip]E[NMeA][dA]ALVSCA-NH2; thioether N-14)
6 | 0.01 | CC(C)C[C@@H]1NC(=O)[C@H](Cc2c[nH]c3ccccc23)NC(=O)[C@H](CC(=O)O)NC(=O)[C@H](Cc2ccc(O)cc2)NC(=O)[C@H](Cc2ccccc2)NC(=O)CSC[C@@H](C(=O)NCC(N)=O)NC(=O)[C@H](CO)NC(=O)[C@H](C(C)C)NC(=O)[C@H](CC(C)C)NC(=O)[C@H](CCN)NC(=O)[C@@H](CC(C)C)NC(=O)[C@H](C)N(C)C(=O)[C@H](C(C)C)NC(=O)[C@H](Cc2ccc(-c3ccccc3)cc2)NC1=O [Compound 1472] ({CH2CO}-FYDWL[Bip]V[NMeA][dL][Dab]LVSCG-NH2; thioether N-14)
7 | 0.32 | CC(C)C[C@@H]1NC(=O)[C@H](CCN)NC(=O)[C@@H](CC(C)C)NC(=O)[C@@H]2CCN2C(=O)[C@H](C(C)C)NC(=O)[C@H](Cc2ccc(-c3ccccc3)cc2)NC(=O)[C@H](C(C)C)NC(=O)[C@H](Cc2c[nH]c3ccccc23)NC(=O)[C@H](CC(=O)O)NC(=O)[C@H](Cc2ccc(O)cc2)NC(=O)[C@H](CC(N)=O)NC(=O)CSC[C@@H](C(=O)N[C@@H](C)C(N)=O)NC(=O)[C@H]([C@@H](C)O)NC(=O)[C@H](C(C)C)NC1=O [Compound 1297] ({CH2CO}-NYDWV[Bip]V[Aze][dL][Dab]LVTCA-NH2; thioether N-14)
8 | 0.08 | CC(C)C[C@@H]1NC(=O)CSC[C@@H](C(=O)N[C@@H](C)C(N)=O)NC(=O)[C@H]([C@@H](C)O)NC(=O)[C@H](C(C)C)NC(=O)[C@H](CC(C)C)NC(=O)[C@H](CCN)NC(=O)[C@@H](CC(C)C)NC(=O)[C@H](C)N(C)C(=O)[C@H](CCCNC(=N)N)NC(=O)[C@H](Cc2ccc(-c3ccccc3)cc2)NC(=O)[C@H](C(C)C)NC(=O)[C@H](Cc2c[nH]c3ccccc23)NC(=O)[C@H](CC(=O)O)NC(=O)[C@H](Cc2ccc(O)cc2)NC1=O [Compound 1039] ({CH2CO}-LYDWV[Bip]R[NMeA][dL][Dab]LVTCA-NH2; thioether N-14)

Further lines, the molecule ahead of its results:

Row | Structure (SMILES) | IC50 [µM]
9 | Cc1cccc(C[C@@H]2NC(=O)[C@H](Cc3ccncc3)NC(=O)CSC[C@@H](C(=O)NCC(N)=O)NC(=O)[C@H](CO)NC(=O)[C@H](C(C)C)NC(=O)[C@H](CC(C)C)NC(=O)[C@H](CC(N)=O)NC(=O)[C@@H](CC(C)C)NC(=O)[C@H](C)N(C)C(=O)[C@H](C(C)C)NC(=O)[C@H](Cc3ccc(-c4ccccc4)cc3)NC(=O)[C@H](CC(C)C)NC(=O)[C@H](Cc3c[nH]c4ccccc34)NC(=O)[C@H](CC(=O)O)NC2=O)c1 [Compound 1519] ({CH2CO}-[4Pal][Phe(3-Me)]DWL[Bip]V[NMeA][dL]NLVSCG-NH2; thioether N-14) | 0.02
10 | CC(=O)NCCC[C@@H]1NC(=O)[C@H](Cc2ccc(-c3ccccc3)cc2)NC(=O)[C@H](Cc2ccc(O)cc2)NC(=O)[C@H](Cc2cccc(C)c2)NC(=O)[C@H](CC(=O)O)NC(=O)[C@H](Cc2ccc(OCC(=O)O)cc2)NC(=O)[C@H](CCCNC(=N)N)NC(=O)CSC[C@@H](C(N)=O)NC(=O)[C@H]([C@@H](C)O)NC(=O)[C@H](C(C)C)NC(=O)[C@H](CC2CCCCC2)NC(=O)[C@H](CCN)NC(=O)[C@@H](CC(C)C)NC(=O)[C@H](C)N(C)C1=O [Compound 1869] ({CH2CO}-RY(Carboxymethyl)D[Phe(3-Me)]Y[Bip][Orn](Ac)[NMeA][dL][Dab][Cha]VTC-NH2; thioether N-14) | 0.05
11 | CC(=O)NCCCC[C@@H]1NC(=O)[C@H](C(C)C)NC(=O)[C@H](CC2CCCCC2)NC(=O)[C@H](CCN)NC(=O)[C@@H](CC(C)C)NC(=O)[C@H](C)N(C)C(=O)[C@H](Cc2cnc[nH]2)NC(=O)[C@H](Cc2ccc(-c3ccccc3)cc2)NC(=O)[C@H](C(C)C)NC(=O)[C@H](Cc2cccc(C)c2)NC(=O)[C@H](CC(=O)O)NC(=O)[C@H](Cc2ccc(OCC(=O)O)cc2)NC(=O)[C@H](Cc2ccc(OCC(=O)O)cc2)NC(=O)CSC[C@@H](C(N)=O)NC1=O [Compound 2262] ({CH2CO}-Y(Carboxymethyl)Y(Carboxymethyl)D[Phe(3-Me)]V[Bip]H[NMeA][dL][Dab][Cha]VK(Ac)C-NH2; thioether N-14) | 0.01
12 | CC(C)C[C@@H]1NC(=O)[C@H](Cc2c[nH]c3ccccc23)NC(=O)[C@H](CC(=O)O)NC(=O)[C@H](Cc2cccc(C(=O)O)c2)NC(=O)[C@H](CN)NC(=O)CSC[C@@H](C(=O)NCC(N)=O)NC(=O)[C@H](CO)NC(=O)[C@H](C(C)C)NC(=O)[C@H](CC2CCCCC2)NC(=O)[C@H](CCN)NC(=O)[C@@H](CC(C)C)NC(=O)[C@H](C)N(C)C(=O)[C@H](C(C)C)NC(=O)[C@H](Cc2ccc(-c3ccccc3)cc2)NC1=O [Compound 1877] ({CH2CO}-[Dap][Phe(3-COOH)]DWL[Bip]V[NMeA][dL][Dab][Cha]VSCG-NH2; thioether N-14) | 0.01
13 | Cc1cccc(C[C@@H]2NC(=O)[C@H](CC(=O)O)NC(=O)[C@H](Cc3ccc(OCC(=O)O)cc3)NC(=O)[C@H](C(C)O)NC(=O)CSC[C@@H](C(=O)N[C@@H](CCNC(=O)C(C)(C)C)C(N)=O)NC(=O)[C@H](Cc3cnc[nH]3)NC(=O)[C@H](C(C)(C)O)NC(=O)[C@H](CC3CCCCC3)NC(=O)[C@H](CCN)NC(=O)[C@@H](CC(C)C)NC(=O)[C@H](C)N(C)C(=O)[C@H](Cc3ccc(OCC(=O)O)cc3)NC(=O)[C@H](Cc3ccc(-c4ccccc4)cc3)NC(=O)[C@H](Cc3ccc(C(=O)O)cc3)NC2=O)c1 (stereo partly drawn) [Compound 2164] ({CH2CO}-[Thr(3ξ)]Y(Carboxymethyl)D[Phe(3-Me)][Phe(4-COOH)][Bip]Y(Carboxymethyl)[NMeA][dL][Dab][Cha][Val(3-OH)]HC[Dab](Piv)-NH2; thioether N-14) | 0.05
14 | C#CC[C@H](NC(=O)[C@@H](CC(N)=O)NC(=O)[C@@H]1CSCC(=O)N[C@@H](Cc2ccc(OCC(=O)O)cc2)C(=O)N[C@@H](Cc2ccc(OCC(=O)O)cc2)C(=O)N[C@@H](CC(=O)O)C(=O)N[C@@H](Cc2c[nH]c3ccccc23)C(=O)N[C@@H](C(C)C)C(=O)N[C@@H](Cc2ccc(-c3ccccc3)cc2)C(=O)N[C@@H]([C@@H](C)CC)C(=O)N(C)[C@@H](C)C(=O)N[C@H](CC(C)C)C(=O)N[C@@H](CCC)C(=O)N[C@@H](CC2CCCCC2)C(=O)N[C@@H](C(C)(C)O)C(=O)N[C@@H](CO)C(=O)N1)C(N)=O [Compound 1718] ({CH2CO}-Y(Carboxymethyl)Y(Carboxymethyl)DWV[Bip]I[NMeA][dL][Nva][Cha][Val(3-OH)]SC[dN][Pra]-NH2; thioether N-14) | 0.03
15 | COc1cccc(C[C@@H]2NC(=O)[C@H](CC(=O)O)NC(=O)[C@H](Cc3cccc(C#N)c3)NC(=O)[C@H](Cc3ccncc3)NC(=O)CSC[C@@H](C(=O)N[C@@H](C)C(N)=O)NC(=O)[C@@H](CO)NC(=O)[C@H](C(C)C)NC(=O)[C@H](CC(C)C)NC(=O)[C@H](CC(N)=O)NC(=O)[C@@H](C)NC(=O)[C@H](C)N(C)C(=O)[C@H](C(C)C)NC(=O)[C@H](Cc3ccc(-c4ccccc4)cc3)NC(=O)[C@@H](CC(C)C)NC2=O)c1 [Compound 1462] ({CH2CO}-[4Pal][Phe(3-CN)]D[Phe(3-OMe)][dL][Bip]V[NMeA][dA]NLV[dS]CA-NH2; thioether N-14) | 0.01

Reference: US20240409585A1, “MACROCYCLIC IMMUNOMODULATORS” (priority 2021, published 2024)
